In PubChem BioAssay (NCI):
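Step 1: Grow cells in 96-well plates. Step 2: Expose to compound for 48 hours at 5 concentrations. Step 3: Interpolate endpoints linearly; if unreached, use highest concentration. GI50 = concentration required for 50% inhibition of growth. Definition used: TGI = concentration required for complete inhibition of growth.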

How the values were obtained:
Assay in all cases: NCI tumour cell line growth inhibition, 48 h
[1] = test system: CAKI-1 renal
[2] = test system: SNB-75 CNS
[3] = test system: 786-0 renal
[4] = test system: SK-OV-3 ovarian
[5] = test system: A498 renal
[6] = test system: SNB-19 CNS
[7] = test system: HL-60(TB) leukemia
[8] = test system: EKVX NSCLC
[9] = test system: NCI-H226 lung
[10] = test system: PC-3 prostate
[11] = test system: MCF7 breast
[12] = test system: SR leukemia
[13] = test system: ACHN renal
[14] = test system: MDA-MB-231 breast
[15] = test system: HOP-62 NSCLC
[16] = test system: COLO 205 colon
[17] = test system: SW-620 colon
[18] = test system: U251 CNS
[19] = test system: HCC-2998 colon
[20] = test system: MDA-MB-435
[21] = test system: HCT-116 colon
[22] = test system: SN12C renal
[23] = test system: SF-268 CNS
[24] = test system: HT29 colon
[25] = test system: SF-295 CNS
[26] = test system: RXF 393 renal
[27] = test system: OVCAR-4 ovarian
[28] = test system: HOP-92 NSCLC
[29] = test system: A549 NSCLC
[30] = test system: NCI-H460 lung
[31] = test system: HCT-15 colon
[32] = test system: SK-MEL-2 melanoma
[33] = test system: NCI-H522 lung
[34] = test system: UACC-257 melanoma
[35] = test system: LOX IMVI melanoma
[36] = test system: MOLT-4 leukemia
[37] = test system: TK-10 renal
[38] = test system: T-47D breast
[39] = test system: SK-MEL-28 melanoma
[40] = test system: SF-539 CNS
[41] = test system: NCI/ADR-RES ovarian
[42] = test system: BT-549 breast
[43] = test system: K-562 leukemia
[44] = test system: UO-31 renal
[45] = test system: KM12 colon
[46] = test system: M14 melanoma
[47] = test system: RPMI-8226 leukemia
[48] = test system: NCI-H23 lung
[49] = test system: HS 578T breast
[50] = test system: IGROV1 ovarian
[51] = test system: SK-MEL-5 melanoma
[52] = test system: UACC-62 melanoma
[53] = test system: OVCAR-5 ovarian
[54] = test system: OVCAR-8 ovarian
[55] = test system: DU-145 prostate
[56] = test system: OVCAR-3 ovarian
[57] = test system: MALME-3M melanoma
[58] = test system: CCRF-CEM leukemia

C/C1=C\C/C=C(\C)[C@H]2CC(CC/C(C)=C/CC1)[C@](C)(C=O)O2
GI50 [1]: 36.4 µM | TGI [1]: 99.2 µM | GI50 [2]: > 100 µM | TGI [2]: > 100 µM | GI50 [3]: > 100 µM | TGI [3]: > 100 µM | GI50 [4]: > 100 µM | TGI [4]: > 100 µM | GI50 [5]: 92.2 µM | TGI [5]: > 100 µM | GI50 [6]: > 100 µM | TGI [6]: > 100 µM | GI50 [7]: 25.6 µM | TGI [7]: 81.2 µM | GI50 [8]: > 100 µM | TGI [8]: > 100 µM | GI50 [9]: > 100 µM | TGI [9]: > 100 µM | GI50 [10]: 88.2 µM | TGI [10]: > 100 µM | GI50 [11]: 38.2 µM | TGI [11]: 87.8 µM | GI50 [12]: 16.3 µM | TGI [12]: 35.5 µM | GI50 [13]: > 100 µM | TGI [13]: > 100 µM | GI50 [14]: > 100 µM | TGI [14]: > 100 µM | GI50 [15]: 40.6 µM | TGI [15]: > 100 µM | GI50 [16]: > 100 µM | TGI [16]: > 100 µM | GI50 [17]: 51.1 µM | TGI [17]: > 100 µM | GI50 [18]: 43.9 µM | TGI [18]: > 100 µM | GI50 [19]: 49.8 µM | TGI [19]: > 100 µM | GI50 [20]: 66.1 µM | TGI [20]: > 100 µM | GI50 [21]: 6.03 µM | TGI [21]: > 100 µM | GI50 [22]: > 100 µM | TGI [22]: > 100 µM | GI50 [23]: > 100 µM | TGI [23]: > 100 µM | GI50 [24]: > 100 µM | TGI [24]: > 100 µM | GI50 [25]: 28.9 µM | TGI [25]: 96.2 µM | GI50 [26]: > 100 µM | TGI [26]: > 100 µM | GI50 [27]: > 100 µM | TGI [27]: > 100 µM | GI50 [28]: 39.8 µM | TGI [28]: > 100 µM | GI50 [29]: > 100 µM | TGI [29]: > 100 µM | GI50 [30]: 85.1 µM | TGI [30]: > 100 µM | GI50 [31]: > 100 µM | TGI [31]: > 100 µM | GI50 [32]: > 100 µM | TGI [32]: > 100 µM | GI50 [33]: 59.6 µM | TGI [33]: > 100 µM | GI50 [34]: > 100 µM | TGI [34]: > 100 µM | GI50 [35]: 22.2 µM | TGI [35]: 48.5 µM | GI50 [36]: 21 µM | TGI [36]: > 100 µM | GI50 [37]: > 100 µM | TGI [37]: > 100 µM | GI50 [38]: > 100 µM | TGI [38]: > 100 µM | GI50 [39]: > 100 µM | TGI [39]: > 100 µM | GI50 [40]: > 100 µM | TGI [40]: > 100 µM | GI50 [41]: > 100 µM | TGI [41]: > 100 µM | GI50 [42]: 20.9 µM | TGI [42]: > 100 µM | GI50 [43]: 54.8 µM | TGI [43]: > 100 µM | GI50 [44]: > 100 µM | TGI [44]: > 100 µM | GI50 [45]: > 100 µM | TGI [45]: > 100 µM | GI50 [46]: 51.9 µM | TGI [46]: > 100 µM | GI50 [47]: 27.1 µM | TGI [47]: 76.8 µM | GI50 [48]: > 100 µM | TGI [48]: > 100 µM | GI50 [49]: > 100 µM | TGI [49]: > 100 µM | GI50 [50]: 18.2 µM | TGI [50]: > 100 µM | GI50 [51]: 77.1 µM | TGI [51]: > 100 µM | GI50 [52]: > 100 µM | TGI [52]: > 100 µM | GI50 [53]: > 100 µM | TGI [53]: > 100 µM | GI50 [54]: > 100 µM | TGI [54]: > 100 µM | GI50 [55]: 79.8 µM | TGI [55]: > 100 µM | GI50 [56]: 76.4 µM | TGI [56]: > 100 µM

C[C@@H](Oc1ccc2[nH]nc(/C=C/c3cnn(CCO)c3)c2c1)c1c(Cl)cncc1Cl
GI50 [1]: 0.184 µM | TGI [1]: > 100 µM | GI50 [2]: 0.159 µM | TGI [2]: 0.561 µM | GI50 [3]: 0.253 µM | TGI [3]: 2.38 µM | GI50 [4]: 1.29 µM | TGI [4]: 6.15 µM | GI50 [5]: < 0.01 µM | TGI [5]: 0.274 µM | GI50 [6]: 0.364 µM | TGI [6]: 3.52 µM | GI50 [7]: 0.237 µM | TGI [7]: 3.21 µM | GI50 [9]: 0.0304 µM | GI50 [10]: 1.41 µM | TGI [10]: 7.4 µM | GI50 [11]: 0.0573 µM | TGI [11]: 4.06 µM | GI50 [12]: 0.0208 µM | TGI [12]: 1.1 µM | GI50 [13]: 0.284 µM | TGI [13]: > 100 µM | GI50 [14]: 0.357 µM | TGI [14]: > 26.5 µM | GI50 [15]: 0.108 µM | TGI [15]: 3.06 µM | GI50 [16]: 0.107 µM | TGI [16]: 0.306 µM | GI50 [17]: 0.0574 µM | TGI [17]: > 100 µM | GI50 [18]: 0.142 µM | TGI [18]: 2.41 µM | GI50 [19]: 1.43 µM | TGI [19]: 5.21 µM | GI50 [20]: 0.866 µM | TGI [20]: 3.12 µM | GI50 [21]: 0.082 µM | TGI [21]: > 100 µM | GI50 [22]: 0.121 µM | TGI [22]: > 100 µM | GI50 [23]: 0.177 µM | TGI [23]: 1.49 µM | GI50 [24]: 0.171 µM | TGI [24]: 0.681 µM | GI50 [25]: 0.0785 µM | TGI [25]: 23.7 µM | GI50 [26]: 0.0288 µM | TGI [26]: 0.267 µM | GI50 [27]: 1.89 µM | TGI [27]: 8.78 µM | GI50 [28]: 0.0168 µM | TGI [28]: 0.0987 µM | GI50 [29]: 0.0938 µM | TGI [29]: 5.79 µM | GI50 [30]: 0.0866 µM | TGI [30]: 1.62 µM | GI50 [31]: 0.197 µM | TGI [31]: 8.38 µM | GI50 [32]: 1.37 µM | TGI [32]: 3.08 µM | GI50 [33]: 0.572 µM | TGI [33]: 2.49 µM | GI50 [57]: 1.86 µM | TGI [57]: 4.68 µM | GI50 [34]: 1.43 µM | TGI [34]: 6.29 µM | GI50 [35]: 0.0593 µM | TGI [35]: 0.281 µM | GI50 [36]: 0.488 µM | TGI [36]: 3.34 µM | GI50 [37]: 0.251 µM | TGI [37]: 1.68 µM | GI50 [38]: 1.31 µM | TGI [38]: 7.69 µM | GI50 [39]: 1.72 µM | TGI [39]: 4.85 µM | GI50 [40]: 0.035 µM | TGI [40]: 0.268 µM | GI50 [58]: 0.105 µM | TGI [58]: 5 µM | GI50 [41]: 0.697 µM | TGI [41]: 3.81 µM | GI50 [42]: 0.142 µM | TGI [42]: 0.75 µM | GI50 [43]: 0.0249 µM | TGI [43]: > 33.9 µM | GI50 [44]: 0.217 µM | GI50 [45]: < 0.01 µM | TGI [45]: 5.87 µM | GI50 [46]: 0.739 µM | TGI [46]: 3.11 µM | GI50 [47]: 1.54 µM | TGI [47]: 4.41 µM | GI50 [48]: 0.0796 µM | TGI [48]: 2.18 µM | GI50 [49]: 0.106 µM | TGI [49]: 0.681 µM | GI50 [50]: 0.135 µM | TGI [50]: 5.04 µM | GI50 [51]: 0.963 µM | TGI [51]: 3.6 µM | GI50 [52]: 1.65 µM | TGI [52]: 3.81 µM | GI50 [53]: 0.166 µM | TGI [53]: 2.29 µM | GI50 [54]: 0.329 µM | TGI [54]: > 32.1 µM | GI50 [55]: 0.413 µM | TGI [55]: > 43.6 µM | GI50 [56]: 0.462 µM | TGI [56]: 3.56 µM
